# Results: article PMC2801349 (Bioorganic & medicinal chemistry letters, 2009)
# Key:
# [1] = biological target: mGlu2 (Homo sapiens, UniProt Q14416); experiment: Selectivity versus additional mGlus; format: cell-based
# [2] = biological target: mGlu3 (Homo sapiens, UniProt Q14832); experiment: Selectivity versus additional mGlus; format: cell-based
# [3] = biological target: mGlu4 (Homo sapiens, UniProt Q14833); experiment: Selectivity versus additional mGlus; format: cell-based
# [4] = biological target: mGlu7 (Homo sapiens, UniProt Q14831); experiment: Selectivity versus additional mGlus; format: cell-based
# mGlu7, sequence (Q14831 35-915): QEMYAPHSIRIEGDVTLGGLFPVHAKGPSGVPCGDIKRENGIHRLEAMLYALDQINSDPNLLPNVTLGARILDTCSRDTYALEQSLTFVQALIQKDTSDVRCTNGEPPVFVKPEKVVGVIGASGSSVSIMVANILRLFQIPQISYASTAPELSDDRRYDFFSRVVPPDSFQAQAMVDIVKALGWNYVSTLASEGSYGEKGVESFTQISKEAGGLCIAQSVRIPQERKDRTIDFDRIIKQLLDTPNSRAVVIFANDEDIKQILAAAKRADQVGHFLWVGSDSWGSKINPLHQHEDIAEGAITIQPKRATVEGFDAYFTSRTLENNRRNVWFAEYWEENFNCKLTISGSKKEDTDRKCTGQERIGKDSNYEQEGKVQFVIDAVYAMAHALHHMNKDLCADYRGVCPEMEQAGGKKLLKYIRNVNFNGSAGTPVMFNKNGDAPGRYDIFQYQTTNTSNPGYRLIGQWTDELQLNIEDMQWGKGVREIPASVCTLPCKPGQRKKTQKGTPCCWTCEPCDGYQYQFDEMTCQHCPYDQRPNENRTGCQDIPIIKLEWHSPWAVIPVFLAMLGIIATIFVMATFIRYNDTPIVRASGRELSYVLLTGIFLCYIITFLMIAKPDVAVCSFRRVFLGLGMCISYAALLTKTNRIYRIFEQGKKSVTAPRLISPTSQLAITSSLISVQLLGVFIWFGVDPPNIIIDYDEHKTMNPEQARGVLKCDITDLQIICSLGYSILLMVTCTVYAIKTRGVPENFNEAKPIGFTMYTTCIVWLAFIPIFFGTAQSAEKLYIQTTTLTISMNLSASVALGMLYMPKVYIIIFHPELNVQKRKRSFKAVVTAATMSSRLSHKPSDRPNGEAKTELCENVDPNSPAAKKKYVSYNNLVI
# [5] = biological target: mGlu8 (Homo sapiens, UniProt O00222); experiment: Selectivity versus additional mGlus; format: cell-based
# mGlu8, sequence (O00222 34-908): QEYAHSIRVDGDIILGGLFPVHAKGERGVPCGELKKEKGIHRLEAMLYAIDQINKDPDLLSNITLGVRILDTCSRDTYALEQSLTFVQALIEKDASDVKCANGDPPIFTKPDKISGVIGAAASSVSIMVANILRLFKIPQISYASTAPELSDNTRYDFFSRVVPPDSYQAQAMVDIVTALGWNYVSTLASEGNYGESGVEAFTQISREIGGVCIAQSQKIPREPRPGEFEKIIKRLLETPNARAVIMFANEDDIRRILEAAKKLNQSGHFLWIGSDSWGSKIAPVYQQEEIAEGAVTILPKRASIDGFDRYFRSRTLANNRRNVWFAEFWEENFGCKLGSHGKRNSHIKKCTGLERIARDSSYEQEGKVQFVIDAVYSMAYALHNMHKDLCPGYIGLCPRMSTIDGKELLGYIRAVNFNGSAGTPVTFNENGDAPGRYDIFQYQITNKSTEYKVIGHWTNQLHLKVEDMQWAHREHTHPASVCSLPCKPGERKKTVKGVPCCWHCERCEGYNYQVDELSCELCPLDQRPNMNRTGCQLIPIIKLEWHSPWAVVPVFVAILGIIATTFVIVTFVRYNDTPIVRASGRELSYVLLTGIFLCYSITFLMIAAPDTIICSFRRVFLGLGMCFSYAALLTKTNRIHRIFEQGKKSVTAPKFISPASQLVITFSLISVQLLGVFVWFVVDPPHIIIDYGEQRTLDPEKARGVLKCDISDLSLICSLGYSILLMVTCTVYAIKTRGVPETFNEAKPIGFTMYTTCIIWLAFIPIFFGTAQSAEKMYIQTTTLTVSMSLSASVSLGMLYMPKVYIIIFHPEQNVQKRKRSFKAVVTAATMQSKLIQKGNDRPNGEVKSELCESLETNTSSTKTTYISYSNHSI
# [6] = biological target: rat mGlu5 (Rattus norvegicus, UniProt P31424); experiment: Calcium mobilization mGlu5 assay; format: cell-based; conditions: for fold reduction of mGlu5 potency, secondary amine to ether: 26 relative to 13, 29 relative to 4
# rat mGlu5, sequence (P31424 21-1203): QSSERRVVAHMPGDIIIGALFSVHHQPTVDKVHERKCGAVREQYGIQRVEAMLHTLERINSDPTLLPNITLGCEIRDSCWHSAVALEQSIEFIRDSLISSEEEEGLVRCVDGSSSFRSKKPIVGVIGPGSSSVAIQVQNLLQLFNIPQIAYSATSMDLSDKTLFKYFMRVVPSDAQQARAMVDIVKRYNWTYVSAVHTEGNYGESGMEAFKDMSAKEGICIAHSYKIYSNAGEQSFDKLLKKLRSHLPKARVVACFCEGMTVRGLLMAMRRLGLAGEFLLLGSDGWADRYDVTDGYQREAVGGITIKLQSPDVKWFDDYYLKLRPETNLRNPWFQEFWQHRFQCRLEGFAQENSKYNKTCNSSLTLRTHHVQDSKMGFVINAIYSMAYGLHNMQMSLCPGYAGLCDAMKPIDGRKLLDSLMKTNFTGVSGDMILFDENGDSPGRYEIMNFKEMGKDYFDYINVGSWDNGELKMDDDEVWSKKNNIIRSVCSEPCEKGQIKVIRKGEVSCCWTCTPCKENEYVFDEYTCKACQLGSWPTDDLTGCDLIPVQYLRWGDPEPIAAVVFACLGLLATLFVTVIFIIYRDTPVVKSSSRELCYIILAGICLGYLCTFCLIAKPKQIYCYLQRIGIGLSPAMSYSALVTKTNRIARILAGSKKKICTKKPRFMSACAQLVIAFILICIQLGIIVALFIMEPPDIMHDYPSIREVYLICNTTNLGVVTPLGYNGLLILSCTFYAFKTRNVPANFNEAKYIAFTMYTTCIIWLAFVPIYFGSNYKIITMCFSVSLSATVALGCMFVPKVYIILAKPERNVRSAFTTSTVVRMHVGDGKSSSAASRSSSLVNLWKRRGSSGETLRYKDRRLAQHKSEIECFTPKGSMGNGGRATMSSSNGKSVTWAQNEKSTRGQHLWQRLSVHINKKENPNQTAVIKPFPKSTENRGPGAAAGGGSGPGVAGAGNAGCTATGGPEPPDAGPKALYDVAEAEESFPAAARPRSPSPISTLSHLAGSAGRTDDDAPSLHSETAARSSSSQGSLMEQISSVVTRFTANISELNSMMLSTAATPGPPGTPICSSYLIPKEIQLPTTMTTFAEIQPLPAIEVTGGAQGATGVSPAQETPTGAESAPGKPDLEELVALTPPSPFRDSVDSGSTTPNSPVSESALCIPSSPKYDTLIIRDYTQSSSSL
# [7] = system: EGFR; conditions: read-out: EGFR autophosphorylation IC50; A431 cells; cited from earlier work
# mGlu2, sequence (Q14416 19-872): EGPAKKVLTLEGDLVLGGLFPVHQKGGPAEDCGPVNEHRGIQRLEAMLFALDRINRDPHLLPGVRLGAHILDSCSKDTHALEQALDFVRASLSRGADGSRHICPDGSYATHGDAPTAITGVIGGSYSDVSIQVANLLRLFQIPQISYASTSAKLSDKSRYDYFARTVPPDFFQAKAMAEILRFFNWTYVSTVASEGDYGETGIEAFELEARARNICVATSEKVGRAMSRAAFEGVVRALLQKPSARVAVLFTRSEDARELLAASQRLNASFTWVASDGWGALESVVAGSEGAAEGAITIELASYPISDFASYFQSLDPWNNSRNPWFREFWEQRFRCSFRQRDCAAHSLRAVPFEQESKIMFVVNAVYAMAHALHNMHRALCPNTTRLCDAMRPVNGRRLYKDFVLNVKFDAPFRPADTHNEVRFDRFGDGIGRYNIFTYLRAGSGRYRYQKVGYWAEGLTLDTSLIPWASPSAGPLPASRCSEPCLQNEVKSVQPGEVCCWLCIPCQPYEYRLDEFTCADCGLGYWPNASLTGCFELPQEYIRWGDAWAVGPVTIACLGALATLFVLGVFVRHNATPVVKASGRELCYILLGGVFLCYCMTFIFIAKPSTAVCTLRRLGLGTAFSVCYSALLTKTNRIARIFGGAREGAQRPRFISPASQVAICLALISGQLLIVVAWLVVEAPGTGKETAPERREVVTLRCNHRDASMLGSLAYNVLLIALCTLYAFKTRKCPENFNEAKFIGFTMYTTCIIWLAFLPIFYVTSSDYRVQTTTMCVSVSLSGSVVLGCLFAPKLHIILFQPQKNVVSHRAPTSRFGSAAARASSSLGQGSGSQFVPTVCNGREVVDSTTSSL
# mGlu4, sequence (Q14833 33-912): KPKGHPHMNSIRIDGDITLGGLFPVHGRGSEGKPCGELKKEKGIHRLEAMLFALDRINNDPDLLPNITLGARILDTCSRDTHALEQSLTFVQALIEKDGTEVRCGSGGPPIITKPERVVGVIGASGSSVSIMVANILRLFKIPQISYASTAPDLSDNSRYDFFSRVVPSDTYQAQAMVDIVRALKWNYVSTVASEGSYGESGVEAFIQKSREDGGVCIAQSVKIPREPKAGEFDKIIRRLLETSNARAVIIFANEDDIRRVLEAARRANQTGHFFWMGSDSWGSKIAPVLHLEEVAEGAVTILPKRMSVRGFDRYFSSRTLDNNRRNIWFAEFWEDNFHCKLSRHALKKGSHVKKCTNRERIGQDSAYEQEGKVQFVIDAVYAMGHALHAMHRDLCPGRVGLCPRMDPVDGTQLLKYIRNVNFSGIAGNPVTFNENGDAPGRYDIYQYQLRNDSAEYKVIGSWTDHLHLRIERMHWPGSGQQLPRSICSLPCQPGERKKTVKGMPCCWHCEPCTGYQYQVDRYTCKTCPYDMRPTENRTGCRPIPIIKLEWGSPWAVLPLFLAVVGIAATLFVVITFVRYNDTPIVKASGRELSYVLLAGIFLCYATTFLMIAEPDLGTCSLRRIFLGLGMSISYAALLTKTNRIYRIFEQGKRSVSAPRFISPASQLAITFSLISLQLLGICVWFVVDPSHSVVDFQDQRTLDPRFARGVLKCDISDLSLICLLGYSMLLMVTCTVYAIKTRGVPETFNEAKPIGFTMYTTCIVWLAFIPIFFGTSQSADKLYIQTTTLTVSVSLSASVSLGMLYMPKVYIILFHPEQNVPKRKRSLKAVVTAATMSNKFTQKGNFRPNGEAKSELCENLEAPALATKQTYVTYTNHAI
Structure (SMILES),activity against mGlu2 [1],activity against mGlu3 [2],activity against mGlu4 [3],activity against mGlu7 [4],activity against mGlu8 [5],further results
Clc1cccc(Nc2ncnc3ccc(Br)cc23)c1 [Compound 1],inactive,inactive,inactive,inactive,inactive,
FC(F)(F)c1cccc(Nc2ncnc3ccc(Br)cc23)c1 [Compound 6],,,,,,fold less potent at mGlu5 than 5 ([6]; relative to 3-methylaniline 5): 7 fold
Clc1cccc(Nc2ncnc3ccc(Cl)cc23)c1 [Compound 9],,,,,,IC50 [7]: 2.7 µM
Clc1ccc2ncnc(Nc3cccc(Br)c3)c2c1 [Compound 13],inactive,inactive,inactive,inactive,inactive,
Brc1cccc(Nc2nccc3ccc(Br)cc23)c1 [Compound 15],,,,,,fold reduction of mGlu5 activity relative to 4 ([6]; relative to 6-bromoquinazoline comparator 4): approximately 25 fold
Clc1ccc2ncnc(Oc3cccc(Br)c3)c2c1 [Compound 26],,,,,,"fold reduction of mGlu5 potency, secondary amine to ether [6]: more than 50 fold"
Brc1cccc(Oc2ncnc3ccc(Br)cc23)c1 [Compound 29],,,,,,"fold reduction of mGlu5 potency, secondary amine to ether [6]: more than 50 fold"
Fc1ccc2ncnc(Nc3cccc(Br)c3)c2c1 [Compound 32],inactive,inactive,inactive,inactive,inactive,
CCc1cccc(Nc2ncnc3ccc(F)cc23)c1 [Compound 36],,,,,,"% Glu max ([6]; amplitude of response in the presence of 30 μM test compound as a percentage of maximal response (100 μM glutamate), average of n ≥ 3): weak potentiator"
